These results are taken from ChEMBL document CHEMBL4304837, “Discovery of Pyridazinone and Pyrazolo[1,5-a]pyridine Inhibitors of C-Terminal Src Kinase” (ACS Med Chem Lett, 2019).

Each structure is given as a SMILES string.

The nature of data set [1]: Metabolic stability in mouse liver microsomes assessed as compound remaining at 0.5 uM measured after 10 mins in presence of NADPH by LC-MS/MS analysis. The format is ADME, Microsome. Conditions: read-out: Stability. (In general: Liver microsomes are a subcellular fraction often used to study metabolism.)
Data set [2] is described as follows: Metabolic stability in human liver microsomes assessed as compound remaining at 0.5 uM measured after 10 mins in presence of NADPH by LC-MS/MS analysis. Conditions: read-out: Stability. The format is ADME, Microsome.
In data set [3] the target is T1, Tyrosine-protein kinase ZAP-70 (Homo sapiens) (UniProt P43403).
T1 sequence (whole entry): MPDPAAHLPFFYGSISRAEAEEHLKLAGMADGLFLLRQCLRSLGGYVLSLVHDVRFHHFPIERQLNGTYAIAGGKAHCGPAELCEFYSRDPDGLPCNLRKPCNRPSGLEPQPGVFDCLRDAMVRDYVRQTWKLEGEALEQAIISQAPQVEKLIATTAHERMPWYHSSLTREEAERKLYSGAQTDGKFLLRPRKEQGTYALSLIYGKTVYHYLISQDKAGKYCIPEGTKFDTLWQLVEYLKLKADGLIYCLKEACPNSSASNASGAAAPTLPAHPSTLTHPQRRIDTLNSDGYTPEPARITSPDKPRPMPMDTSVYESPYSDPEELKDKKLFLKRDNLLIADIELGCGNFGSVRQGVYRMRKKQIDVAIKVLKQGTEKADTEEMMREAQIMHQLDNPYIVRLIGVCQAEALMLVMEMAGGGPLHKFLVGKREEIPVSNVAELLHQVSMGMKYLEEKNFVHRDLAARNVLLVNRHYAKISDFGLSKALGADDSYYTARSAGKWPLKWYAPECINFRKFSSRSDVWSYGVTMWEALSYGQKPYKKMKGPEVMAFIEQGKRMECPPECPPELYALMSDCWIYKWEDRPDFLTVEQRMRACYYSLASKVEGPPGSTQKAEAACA
Description: Effect on ZAP70 phosphorylation in human Jurkat cells pre-incubated for 30 mins followed by anti-CD3/CD28 stimulation measured after 10 mins relative to control. The format is cell-based.

The nature of data set [4]: Protein binding in mouse serum assessed as unbound fraction measured up to 5 hrs by LC-MS/MS analysis relative to control. The format is ADME, cell-free.
A short description of data set [5]: Half life in human liver microsomes at 0.5 uM measured up to 45 mins by LC-MS/MS analysis. The format is ADME, Microsome.
Data set [6] in a line: Half life in mouse liver microsomes at 0.5 uM measured up to 45 mins by LC-MS/MS analysis. The format is ADME, Microsome.
Data set [7] can be described thus: Protein binding in human serum assessed as unbound fraction measured up to 5 hrs by LC-MS/MS analysis relative to control. The format is ADME, cell-free.
A short description of data set [8]: AUC in C57BL/6 mouse at 100 mg/kg, po. Conditions: in vivo. The format is ADME, organism-based.
Data set [9] can be described thus: Cmax in C57BL/6 mouse at 100 mg/kg, po. The format is ADME, organism-based. Also on record: dose 100 mg/kg, route oral. Conditions: in vivo.
Data set [10] is described as follows: Half life in C57BL/6 mouse at 100 mg/kg, po. Conditions: in vivo. The format is ADME, organism-based.
Data set [11] in a line: Tmax in C57BL/6 mouse at 100 mg/kg, po. The format is ADME, organism-based. Conditions: in vivo.
Data set [12] in a line: Drug concentration in C57BL/6 mouse at 100 mg/kg, po after 24 hrs. The format is ADME, organism-based. Conditions: in vivo, read-out: Ct.
Data set [13] is described as follows: Plasma concentration in C57BL/6 mouse at 100 mg/kg, po. Conditions: in vivo. The format is ADME, organism-based.
Data set [14] in a line: Drug metabolism in mouse liver microsomes assessed as oxidation at indazole ring by soft spot analysis. The format is ADME, Microsome.
Data set [15] in a line: Drug metabolism in mouse liver microsomes assessed as oxidation at […] group by soft spot analysis. The format is ADME, Microsome.
Data set [16] in a line: Effect on human CD4-positive T cell activation assessed as increase in increase in CD4-positive T cells proliferation preincubated for 15 mins followed by co-culture with CHO cells and measured after 48 hrs by AlphaLisa assay. The format is cell-based.
Data set [17] can be described thus: Effect on human CD4-positive T cell activation assessed as increase in IL-2 secretion preincubated for 15 mins followed by co-culture with CHO cells and measured after 48 hrs by AlphaLisa assay.
The species named for data set [18] is Homo sapiens. Description: Immunostimulatory activity in human CD4-positive T cells assessed as increase in OKT-induced IL-2 secretion pre incubated for 15 mins followed by co-culture with CHO cells over-expressing OKT and measured after 48 hrs by AlphaLisa assay. The format is functional, cell-based. (Bead proximity is the source of the signal in Alpha formats.)

The species entered for data set [19] is Homo sapiens. Description: Immunostimulatory activity in human CD4-positive T cells assessed as increase in OKT-induced increase in CD4-positive T cells proliferation pre incubated for 15 mins followed by co-culture with CHO cells over-expressing OKT and measured after 72 hrs by MTS assay. The format is functional, cell-based. A general note: Formazan colour is commonly taken as a measure of viable cells.

The target of data set [20] is Tyrosine-protein kinase Lck (Homo sapiens, UniProt P06239). In words: Inhibition of His-tagged/GST-tagged LCK (unknown origin) incubated for 1 hr by TR-FRET assay.
Tyrosine-protein kinase Lck, sequence (P06239 whole entry): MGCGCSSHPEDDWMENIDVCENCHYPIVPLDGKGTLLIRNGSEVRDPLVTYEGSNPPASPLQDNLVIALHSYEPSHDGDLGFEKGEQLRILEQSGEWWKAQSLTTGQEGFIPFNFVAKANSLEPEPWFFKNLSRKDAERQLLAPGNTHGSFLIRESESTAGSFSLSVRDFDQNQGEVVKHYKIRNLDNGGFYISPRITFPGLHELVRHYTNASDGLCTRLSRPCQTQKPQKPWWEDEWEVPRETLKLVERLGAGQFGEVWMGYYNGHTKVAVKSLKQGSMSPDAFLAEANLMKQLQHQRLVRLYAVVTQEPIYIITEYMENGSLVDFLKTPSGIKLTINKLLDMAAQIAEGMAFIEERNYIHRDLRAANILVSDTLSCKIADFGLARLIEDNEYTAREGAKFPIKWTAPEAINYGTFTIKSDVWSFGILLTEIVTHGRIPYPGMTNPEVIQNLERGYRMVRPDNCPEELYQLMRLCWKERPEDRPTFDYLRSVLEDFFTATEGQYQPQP

As a reminder, the Emax is the size of the effect at its maximum, as opposed to the concentration needed. For `CC(C)(C)NC(=O)N1CCC(n2nc(C(=O)Nc3ccc(-c4ccc(=O)[nH]n4)c(Cl)c3)c3ccccc32)CC1`, the remaining at 10 min, 0.5 µM amounted to 15% in [1] and 65% in data set [2]. The molecule also yielded an Emax in data set [3] of 180%.

The term half-life denotes the time in which the quantity being followed falls by half. As to `COc1ccc2c(C(=O)Nc3ccc(NC(=O)c4nn(C5CCN(C(=O)NC(C)(C)C)CC5)c5ccc(F)cc45)cc3Cl)cnn2c1`, the values for the Fu in data set [4] and in data set [7] were below 0.2% and 0.4%, respectively. Also, the remaining at 10 min, 0.5 µM in [1] stood at 99%; in data set [2], 85%. For the same molecule, the Emax in data set [3] came to 210%. The half-life at 0.5 µM in data set [5] was above 2 h; in data set [6], 1.47 h.

Turning to `Cc1cc(=O)[nH]nc1-c1ccc(NC(=O)c2nn(C3CCN(C(=O)NC(C)(C)C)CC3)c3ccccc23)cc1Cl`, the remaining at 10 min, 0.5 µM in [1] stood at 9%; in [2], 68%. Further, the Emax in [3] came out at 350%.

Regarding `CCc1cc(NC(=O)c2nn(C3CCN(C(=O)NC(C)(C)C)CC3)c3ccccc23)ccc1-c1n[nH]c(=O)c(C)c1C`, the Fu in [4] was determined as 1%; in data set [7], 0.5%. Also, the remaining at 10 min, 0.5 µM in data set [1] worked out at 59%; in data set [2], 61%. Besides, the Emax in data set [3] came out at 270%. Further, the half-life at 0.5 µM in [5] was 0.233 h; in data set [6], 0.2 h.

For orientation: AUC means the area under the concentration-time curve, a measure of exposure. A high value points to more exposure. The term Cmax denotes the highest concentration seen after dosing. As a reminder, the Tmax is the time at which the peak concentration occurs. Turning to `CCc1cc(NC(=O)c2nn(C3CCN(C(=O)NC(C)(C)C)CC3)c3ccccc23)ccc1-c1n[nH]c(=O)cc1C`, the AUC in [8] is 51.5 µM·h. In data set [9], this molecule returned a Cmax of 17.3 µM. In data set [10], this molecule showed a half-life of 1.9 h. The Fu in [4] came out at 0.9%; in data set [7] it was 0.4%. The remaining at 10 min, 0.5 µM came out at 78% in data set [1] and 53% in [2]. For the same molecule, the Tmax in data set [11] amounted to 0.3 h. The molecule further returned an Emax in data set [3] of 350%. Further, in data set [12], the concentration at 24 h is 0.001 µM. The same molecule had a concentration in [13] of 8.7 µM. In addition, the half-life at 0.5 µM turned out to be 0.167 h in data set [5] and 0.517 h in data set [6].

`CC(C)(C)NC(=O)N1CCC(n2nc(C(=O)Nc3ccc(NC(=O)c4cnn5ccccc45)cc3)c3ccccc32)CC1`: the remaining at 10 min, 0.5 µM in data set [1] stood at 21%; in [2] it was 71%. This molecule returned a maximum response (Emax) in data set [3] of 240%.

With `COc1ccc2c(C(=O)Nc3ccc(NC(=O)c4nn(C5CCN(C(=O)NC(C)(C)C)CC5)c5ccccc45)cc3C)cnn2c1`, the remaining at 10 min, 0.5 µM in data set [1] is 2%; in data set [2] it was 80%. The same molecule gave an Emax in data set [3] of 220%.

Consider `Cc1cc(NC(=O)c2nn(C3CCN(C(=O)NC(C)(C)C)CC3)c3ccccc23)ccc1NC(=O)c1cnn2ccccc12`, for which the Drug metabolism result in data set [14] was “Metabolite_Detected”. Besides, the figures for the remaining at 10 min, 0.5 µM in data set [1] and in data set [2] were 10% and 72%, respectively. For the same molecule, in [3], the Emax was determined as 190%.

For `COc1ccc2c(C(=O)Nc3ccc(NC(=O)c4nn(C)c5ccccc45)cc3C)cnn2c1`, the remaining at 10 min, 0.5 µM in [1] stood at 59%.

With `Cc1cc(NC(=O)c2nn(C3CCN(C(=O)CC(C)(C)C#N)CC3)c3ccccc23)ccc1NC(=O)c1cnn2ccccc12`, the Drug metabolism result in data set [15] is “Metabolite_Detected”. Also, the remaining at 10 min, 0.5 µM in [1] was found to be 9%; in data set [2], 85%. Besides, the Emax in data set [3] is 370%.

On to `COc1ccc2c(C(=O)Nc3ccc(NC(=O)c4nn(C5CCN(C(=O)CC(C)(C)C#N)CC5)c5ccc(F)cc45)cc3Cl)cnn2c1`, for which the Activity entry in data set [16] is “Non-Toxic”; in data set [17], “Non-Toxic”; in data set [18] it was “Dose-dependent effect”; in data set [19] it was “Dose-dependent effect”. This molecule also registered an AUC in data set [8] of 222 µM·h. For the same molecule, the peak level in data set [9] (Cmax) was 19.3 µM. In data set [10], this molecule gave a half-life of 5.3 h. Moreover, the Fu in data set [4] is 0.3%; in [7], below 0.1%. Moreover, the figures for the remaining at 10 min, 0.5 µM in data set [1] and in data set [2] were 100% and 91%, respectively. Moreover, the Tmax in data set [11] came out at 7 h. In [3], this molecule had an Emax of 360%. The concentration at 24 h in data set [12] was 1.3 µM. In addition, the half-life at 0.5 µM in [5] and in data set [6] was above 2 h throughout.

`CCc1cc(NC(=O)c2nn(C3CCN(C(=O)NC(C)(C)C)CC3)c3ccccc23)ccc1-c1cc(C)c(=O)[nH]n1`: the remaining at 10 min, 0.5 µM in [1] was found to be 1%; in data set [2], 72%. In addition, in [3], the Emax came out at 280%.

The term IC50 denotes the point on the concentration scale where inhibition reaches its midpoint. Turning to `CC(C)(C)NC(=O)N1CC(Cn2nc(C(=O)Nc3ccc(-c4ccc(=O)[nH]n4)c(Cl)c3)c3ccccc32)C1`, the remaining at 10 min, 0.5 µM in data set [1] came out at 33%; in [2] it was 2%. This molecule registered an Emax in data set [3] of 73%. For the same molecule, the IC50 in [20] is above 50 µM.

On to `CC(C)(C)NC(=O)N1CCC(n2nc(C(=O)Nc3ccc(NC(=O)c4cnn5ccccc45)c(Cl)c3)c3ccccc32)CC1`, for which the remaining at 10 min, 0.5 µM in data set [1] came to 24%; in data set [2], 84%. This molecule had an Emax in data set [3] of 250%.
